Results reported in US8933233B2, “1,3,4-oxadiazole and 1,3,4-thiadiazole β-lactamase inhibitors” (priority 2012, dated 2015).
Where a name gives a salt, the structure may show the parent alone.

Legend:
[1] = test system: bacterial strains that express KPC β-lactamases; test: Synergy MIC / standard BLI potentiation MIC assay, strains expressing KPC β-lactamases; assay type: cell-based, isogenic E. coli and clinical isolates; settings: more active for at least one KPC strain and/or better spectrum; comparator Avibactam
Outline: (§1)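 Broth microdilution in CAMHB per CLSI M07-A9, ~10^5 CFU/mL inoculum, 18–20 h at 37 °C with aeration; engineered E. coli kept with 25 μg/mL tetracycline. β-lactam 2-fold from 128 to 0.13 μg/mL with BLI fixed at 4 μg/mL, or BLI serially diluted with β-lactam fixed; MIC is lowest concentration without visible turbidity.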

[2] = test system: bacterial strains that express the class D cephalosporinase OXA-15; test: Synergy MIC / standard BLI potentiation MIC assay, strains expressing OXA-15; assay type: cell-based, E. coli; settings: in presence of a β-lactam; comparator Avibactam (CCC)
Outline: as §1

Row | SMILES | activity and/or spectrum of activity against bacterial strains that express KPC β-lactamases, compared with Avibactam [1] | activity against bacterial strains that express OXA-15, compared with Avibactam [2]
1 | N[C@H]1CC[C@@H](c2nnc([C@@H]3CC[C@@H]4CN3C(=O)N4OS(=O)(=O)O)o2)C1 [Compound 768, (2S,5R)-2-(5-((1R,3S)-3-aminocyclopentyl)-1,3,4-oxadiazol-2-yl)-7-oxo-1,6-diazabicyclo[3.2.1]octan-6-yl hydrogen sulfate] | more active than Avibactam | more active than Avibactam
2 | N=C(N)NCCc1nnc([C@@H]2CC[C@@H]3CN2C(=O)N3OS(=O)(=O)O)o1 [Compound 705, (2S,5R)-2-(5-(2-guanidinoethyl)-1,3,4-oxadiazol-2-yl)-7-oxo-1,6-diazabicyclo[3.2.1]octan-6-yl hydrogen sulfate] | more active than Avibactam | more active than Avibactam
3 | N=C(N)N[C@H]1C[C@@H](c2nnc([C@@H]3CC[C@@H]4CN3C(=O)N4OS(=O)(=O)O)o2)C1 [Compound 749, 2S,5R)-2-(5-((1s,3R)-3-guanidinocyclobutyl)-1,3,4-oxadiazol-2-yl)-7-oxo-1,6-diazabicyclo[3.2.1]octan-6-yl hydrogen sulfate] | more active than Avibactam | more active than Avibactam
4 | NC(=O)c1nnc([C@@H]2CC[C@@H]3CN2C(=O)N3OS(=O)(=O)O)o1 [Compound 706, (2S,5R)-2-(5-carbamoyl-1,3,4-oxadiazol-2-yl)-7-oxo-1,6-diaza-bicyclo[3.2.1]octan-6-yl hydrogen sulfate] | more active than Avibactam | more active than Avibactam
5 | NC1(Cc2nnc([C@@H]3CC[C@@H]4CN3C(=O)N4OS(=O)(=O)O)o2)CC1 [Compound 724, (2S,5R)-2-(5-((1-aminocyclopropyl)methyl)-1,3,4-oxadiazol-2-yl)-7-oxo-1,6-diazabicyclo[3.2.1]octan-6-yl hydrogen sulfate] | more active than Avibactam | more active than Avibactam
6 | N=C(N)N1CC(c2nnc([C@@H]3CC[C@@H]4CN3C(=O)N4OS(=O)(=O)O)o2)C1 [Compound 709, (2S,5R)-2-(5-(1-carbamimidoylazetidin-3-yl)-1,3,4-oxadiazol-2-yl)-7-oxo-1,6-diazabicyclo[3.2.1]octan-6-yl hydrogen sulfate] | more active than Avibactam | more active than Avibactam
7 | N=C(N)N[C@H]1C[C@@H](c2nnc([C@@H]3CC[C@@H]4CN3C(=O)N4OS(=O)(=O)O)s2)C1 [Compound 784, (2S,5R)-2-(5-((1s,3R)-3-guanidinocyclobutyl)-1,3,4-thiadiazol-2-yl)-7-oxo-1,6-diazabicyclo[3.2.1]octan-6-yl hydrogen sulfate] | more active than Avibactam | more active than Avibactam
8 | O=C1N2C[C@@H](CC[C@H]2c2nnc(CN[C@H]3CCNC3)o2)N1OS(=O)(=O)O [Compound 765, (2S,5R)-7-oxo-2-(5-(((S)-pyrrolidin-3-ylamino)methyl)-1,3,4-oxadiazol-2-yl)-1,6-diazabicyclo[3.2.1]octan-6-yl hydrogen sulfate] | more active than Avibactam | more active than Avibactam
9 | O=C1N2C[C@@H](CC[C@H]2c2nnc(CC3CCNC3)o2)N1OS(=O)(=O)O (stereo partly drawn) [Compound 764, (2S,5R)-7-oxo-2-(5-(pyrrolidin-3-ylmethyl)-1,3,4-oxadiazol-2-yl)-1,6-diazabicyclo[3.2.1]octan-6-yl hydrogen sulfate] | more active than Avibactam | more active than Avibactam
10 | O=C1N2C[C@@H](CC[C@H]2c2nnc(CCNC3CCNCC3)o2)N1OS(=O)(=O)O [Compound 770, (2S,5R)-7-oxo-2-(5-(2-(piperidin-4-ylamino)ethyl)-1,3,4-oxadiazol-2-yl)-1,6-diazabicyclo[3.2.1]octan-6-yl hydrogen sulfate] | more active than Avibactam | more active than Avibactam
11 | O=C1N2C[C@@H](CC[C@H]2c2nnc(CCN3CCNCC3)o2)N1OS(=O)(=O)O [Compound 776, (2S,5R)-7-oxo-2-(5-(2-(piperazin-1-yl)ethyl)-1,3,4-oxadiazol-2-yl)-1,6-diazabicyclo[3.2.1]octan-6-yl hydrogen sulfate] | more active than Avibactam | more active than Avibactam
12 | NC1CCN(Cc2nnc([C@@H]3CC[C@@H]4CN3C(=O)N4OS(=O)(=O)O)o2)CC1 [Compound 774, (2S,5R)-2-(5-((4-aminopiperidin-1-yl)methyl)-1,3,4-oxadiazol-2-yl)-7-oxo-1,6-diazabicyclo[3.2.1]octan-6-yl hydrogen sulfate] | more active than Avibactam | more active than Avibactam
13 | O=C1N2C[C@@H](CC[C@H]2c2nnc(C3CNC3)o2)N1OS(=O)(=O)O [Compound 708, (2S,5R)-2-(5-(azetidin-3-yl)-1,3,4-oxadiazol-2-yl)-7-oxo-1,6-diazabicyclo[3.2.1]octan-6-yl hydrogen sulfate] | more active than Avibactam | more active than Avibactam
14 | N=C(N)NCC(O)Cc1nnc([C@@H]2CC[C@@H]3CN2C(=O)N3OS(=O)(=O)O)o1 (stereo partly drawn) [Compound 730, (2S,5R)-2-(5-(3-guanidino-2-hydroxypropyl)-1,3,4-oxadiazol-2-yl)-7-oxo-1,6-diazabicyclo[3.2.1]octan-6-yl hydrogen sulfate] | more active than Avibactam | more active than Avibactam
15 | NC1CC(NCc2nnc([C@@H]3CC[C@@H]4CN3C(=O)N4OS(=O)(=O)O)o2)C1 (stereo partly drawn) [Compound 755, (2S,5R)-2-(5-(((3-aminocyclobutyl)amino)methyl)-1,3,4-oxadiazol-2-yl)-7-oxo-1,6-diazabicyclo[3.2.1]octan-6-yl hydrogen sulfate] | more active than Avibactam | more active than Avibactam
16 | N[C@H]1C[C@H](Cc2nnc([C@@H]3CC[C@@H]4CN3C(=O)N4OS(=O)(=O)O)o2)C1 [Compound 751, (2S,5R)-2-(5-(((1r,3S)-3-aminocyclobutyl)methyl)-1,3,4-oxadiazol-2-yl)-7-oxo-1,6-diazabicyclo[3.2.1]octan-6-yl hydrogen sulfate] | more active than Avibactam | more active than Avibactam
17 | N[C@H]1CN[C@H](c2nnc([C@@H]3CC[C@@H]4CN3C(=O)N4OS(=O)(=O)O)o2)C1 [Compound 762, (2S,5R)-2-(5-((2S,4R)-4-aminopyrrolidin-2-yl)-1,3,4-oxadiazol-2-yl)-7-oxo-1,6-diazabicyclo[3.2.1]octan-6-yl hydrogen sulfate] | more active than Avibactam | more active than Avibactam
18 | CNCCCc1nnc([C@@H]2CC[C@@H]3CN2C(=O)N3OS(=O)(=O)O)o1 [Compound 734, 2S,5R)-2-(5-(3-(methylamino)propyl)-1,3,4-oxadiazol-2-yl)-7-oxo-1,6-diazabicyclo[3.2.1]octan-6-yl hydrogen sulfate] | more active than Avibactam | more active than Avibactam
19 | NCCCCc1nnc([C@@H]2CC[C@@H]3CN2C(=O)N3OS(=O)(=O)O)o1 [Compound 735, (2S,5R)-2-(5-(4-aminobutyl)-1,3,4-oxadiazol-2-yl)-7-oxo-1,6-diazabicyclo[3.2.1]octan-6-yl hydrogen sulfate] | more active than Avibactam | more active than Avibactam
